In PubChem BioAssay AID2305 (GlaxoSmithKline (GSK), 2010):
“And” between values parts separate entries of the source, which are not always exact repeats. Identical values can stand only once.

Test system: P. falciparum 3D7 growth, pLDH absorbance
Test: blood-stage malaria parasite growth potency – strain 3D7, dose response (AID 2305)

| Compound | IC50 |
| --- | --- |
| CCC(C)CN1CCN(c2ccc(NC(=O)c3cccs3)cc2)C(C)C1 (stereo unspecified) | 540 nM |
| CC(C)N1CCN(C(CN2CCN(CCCOc3ccc(-c4ccccc4)cc3)CC2)c2ccc(F)cc2)CC1 (stereo unspecified) | 680 nM |
| CC(C)(C)c1ccc2nc(-c3ccc(C(=O)NC4CCN(Cc5ccccc5)CC4)s3)[nH]c2c1 | 360 nM |
| COC(=O)C(Cc1ccccc1)C(CSCc1ccc(OC)cc1)C(=O)N[C@@H](C(=O)OC(C)(C)C)c1ccc(C(C)(C)C)cc1 (stereo partly specified) | 1030 nM |
| CN(C)C(CNc1ncnc2cc(Cl)ccc12)Cc1ccccc1 (stereo unspecified) | 870 nM |
| CCn1cc(CN2CCCC(C(=O)Nc3ccc(-c4nc5ccccc5[nH]4)cc3)C2)cn1 (stereo unspecified) | 930 nM |
| CCc1ccc(CN2CCC(C(=O)Nc3ccc(-c4nc5ccccc5[nH]4)cc3)CC2)o1 | 610 nM |
| CC(CN1CCN(C)CC1)C(=O)Nc1ccc(-c2cccc(-c3nc4ccc(F)cc4[nH]3)c2)cc1 (stereo unspecified) | 520 nM |
| CC(C)CC(=O)N(Cc1ccc(-c2ccc(CNC3Cc4ccccc4C3)cc2)cc1)C1CCNCC1 | 1170 nM |
| CC(C)CNCc1ccc(-c2ccc(CN(C(=O)Nc3ccccc3)C3CCN(Cc4ccccc4)CC3)cc2)cc1 | 680 nM |
| CC(=O)Nc1ncc(C(=O)Nc2cccc(-c3cccc(-c4nc5ccc(C(F)(F)F)cc5[nH]4)c3)c2)s1 | 180 nM |
| COc1cc(NC(=O)c2cc([N+](=O)[O-])ccc2NC(=O)CNC2CCCC(C)C2C)cc(OC)c1 (stereo unspecified) | 1040 nM |
| CN1CCCc2ccc(NC(=O)Nc3ccc(Cl)c(Cl)c3)cc2C1 | 600 nM |
| COc1ccc(CCN2CCC(CN(C)Cc3cnn(-c4ccccc4)c3)CC2)cc1 | 1160 nM |
| Cc1ccc(C(=O)c2oc3ccc4c(C)cc(=O)oc4c3c2C)cc1 | 1030 nM |
| CC(=O)Nc1ccc(CN(Cc2ccc(F)cc2)Cc2ccc3c(c2)OCO3)cc1 | 940 nM |
| CC(C)CNCc1cccc(-c2cccc(CN(C(=O)NC3CCCCC3)C3CCN(Cc4ccccc4)CC3)c2)c1 | 820 nM |
| CCCCNCC(O)COc1ccccc1-c1ccc(N/N=C/c2cccc3ccccc23)nn1 (stereo unspecified) | 890 nM |
| COCCNC(=O)C1CCN(C(c2ccc(Cl)cc2)c2ccc(Cl)cc2)CC1 | 550 nM |
| Cn1nc(-c2ccc(CN[C@@H]3CCc4ccc(O)cc43)cc2)c2cnc(NC3CCCC3)nc21 | 1120 nM |
| O=S(=O)(c1c(Cl)cccc1Cl)N1CCCCC(c2ccc(C(F)(F)F)cc2)=N1 | 130 nM |
| O=C(Nc1cccc(-c2ccc(-c3nc4ccc(C(F)(F)F)cc4[nH]3)s2)c1)c1cnc[nH]1 | 1110 nM |
| C=C[C@H]1CN2CC[C@H]1C[C@H]2[C@H](OS(=O)(=O)O)c1ccnc2ccccc12 | 620 nM |
| CCNc1cc(C(=O)N[C@@H](Cc2ccccc2)[C@H](O)CNC2(C)CCCCC2)cc(N2CCCCS2(=O)=O)c1 | 160 nM |

| Compound | IC50 |
| --- | --- |
| COc1ccc2nccc([C@@H](O)CN3CCC(NCc4ccc5c(c4)sc(=O)n5C)CC3)c2c1 | 260 nM |
| Cc1cccc2[nH]c(-c3cccc(-c4ccc(NC(=O)COc5ccccc5C(N)=O)cc4)c3)nc12 | 890 nM |
| c1cn(CCCNc2ncc(-c3ccsc3)c(-c3nccs3)n2)cn1 | 650 nM |
| CCOC(=O)c1[nH]c(-c2cc(Cl)nc(Cl)c2)nc1NC(=S)NCc1ccc(NS(C)(=O)=O)cc1 | 890 nM |
| CC(O)C1CCCCN1C(=O)c1ccc(-c2ccc(-c3nc4ccccc4[nH]3)s2)cc1 (stereo unspecified) | 970 nM |
| O=c1cc(NC[C@H]2CCC[C@@H]2NCc2cc(Br)cc(Br)c2)[nH]c2ccccc12 | 680 nM |
| CN(C)c1ccc(C=Cc2nc(=O)c3ccccc3o2)cc1 | 40 nM |
| COc1ccc(-n2ccnc2SCC(=O)Nc2cccc(C(F)(F)F)c2)c(OC)c1 | 220 nM |
| COC(=O)/C=C/C(=O)N[C@@H]1CC[C@@]2(O)[C@H]3Cc4ccc(O)c5c4[C@@]2(CCN3CC2CC2)[C@H]1O5 | 640 nM |
| COc1cc(Br)ccc1N1CCN(CCCCNC(=O)c2ccc(NC(=O)c3ccc(Cl)cc3)cc2)CC1 | 760 nM |
| Cc1cccc(-c2cc3cc(Nc4ccnc5cc(-c6nccs6)ccc45)ccc3[nH]2)c1 | 170 nM |
| CN(c1ccc(NC(=O)Nc2cc(C(F)(F)F)ccc2F)cc1)c1ccnc(NCCN2CCCC2)n1 | 1150 nM |
| COc1cc2nc(N3CCC(CNC(=O)c4ccc(C(C)=O)cc4)CC3)nc(N)c2cc1OC | 1120 nM |
| O=C(/C=C/c1ccc(Cl)c(Cl)c1)NC1CCC(CN2CC[C@H](c3c[nH]c4ccccc34)[C@@H](O)C2)CC1 (stereo partly specified) | 720 nM |
| CN1CCC(NCc2cccc(-c3nn(C)c4nc(NC5CCCC5)ncc34)c2)CC1 | 1020 nM |
| Cc1cccc2[nH]c(-c3ccc(-c4ccc(CN5CCN(CCO)CC5)cc4)cc3)nc12 | 600 nM |
| Oc1ccc2[nH]cc(C3=CCN(CCc4ccccc4)CC3)c2c1 | 310 nM |
| CN1c2ccccc2Sc2cc(CNCCSCCNCc3ccc4c(c3)Sc3ccccc3N4C)ccc21 | 1010 nM |
| COc1cccc(C(=O)Nc2ccc(Nc3nc(C)cc(N(C)C)n3)cc2)c1 | 940 nM |
| CN(C)c1cc(C(=O)N[C@@H](Cc2ccccc2)[C@H](O)CNC2CCCCC2)cc2[nH]ccc12 | 1070 nM |
| COc1ccc(C(=O)c2ccc3[nH]cc(C4=CCN(C)CC4)c3c2)cc1 | 1050 nM |
| CC(C)CC1c2[nH]c3ccccc3c2CCN1C(=O)CCc1ccccc1 (stereo unspecified) | 970 nM |
| O=C(/C=C/c1ccc(Cl)c(Cl)c1)NCCCCCN1CCC(CCNC(=O)/C=C/c2ccc(Cl)c(Cl)c2)CC1 | 560 nM |
| Oc1ccc(-c2ccccc2)cc1CN1CCCCCC1 | 1170 nM |

| Compound | IC50 |
| --- | --- |
| COC(=O)CCn1c(C2CCN(CC3CCC(NC(=O)/C=C/c4ccc(Cl)c(Cl)c4)CC3)CC2)nc2ccccc21 (stereo unspecified) | 950 nM |
| COc1ccc(Cc2cnc3nc(N)nc(N)c3c2C)cc1 | 30 nM |
| CCOC(=O)N1CCN(CCCNc2c3ccc(Cl)cc3nc3ccc(OC)cc23)CC1 | 100 nM |
| Cc1ccc(C(O)CNc2ccnc(Nc3cccc(-c4csc(C)n4)c3)n2)cc1 (stereo unspecified) | 830 nM |
| Cc1ccc(/C=C/C(=O)NC2CCC(CN3CCC(c4c[nH]c5ccccc45)CC3)CC2)cc1 (stereo unspecified) | 920 nM and 800 nM |
| O=C(NC1CC1)c1ccc(Cn2c(SCc3cccc(Cl)c3)nc3ccccc3c2=O)cc1 | 420 nM |
| CCc1cc(COc2ccc(CNCCC(C)C)cc2I)c(OCc2ccccc2)c(COc2ccc(CNCCC(C)C)cc2I)c1 | 1110 nM |
| COc1ccc(-c2cccc(NC(=O)c3cccc(Cl)c3)c2)cc1CN1CCN(C)CC1 | 760 nM |
| OC(CNCc1ccco1)Cn1c2ccc(Br)cc2c2cc(Br)ccc21 (stereo unspecified) | 1070 nM |
| COCCOc1nc(N)nc2ncc(Cc3cc(OC)ccc3OC)c(C)c12 | 430 nM |
| COc1ccc(C=CC(=O)NC(=O)c2ccccc2OC(=O)c2ccccc2)cc1OC | 910 nM |
| O=C(Nc1cc(Cl)ccc1O)c1cnn2c(C(F)(F)F)cc(-c3cccs3)nc12 | 860 nM |
| COc1cc2nc(NCCn3cccn3)nc(NCCc3ccccc3)c2cc1OC | 280 nM |
| CCCN1CCN(CCCNC(=O)c2cc3c(Cl)nc4ccc(C)cc4c3s2)CC1 | 800 nM |
| Nc1nccc2ccc(OC3CCCCC3)cc12 | 600 nM |
| CC[C@H](C)CNC(=O)c1cncc(-c2ccc(CNCCCc3ccccc3)cc2)c1 | 730 nM |
| c1ccc(Oc2ccc(Nc3ccnc4ccc(-c5ccco5)cc34)cc2)cc1 | 930 nM |
| CC1CN(c2ccc(NC(=O)c3cccs3)cc2)CCN1Cc1cccc(F)c1 (stereo unspecified) | 490 nM |
| Cn1nc(-c2ccc(CN[C@@H]3CCc4ccc(O)cc43)cc2)c2cnc(NCCCN3CCCC3)nc21 | 800 nM |
| CSC1=NC2(CC(c3cccc(C)c3)c3cc(Cl)c(O)cc3O2)CC(C)(C)N1 (stereo unspecified) | 880 nM |
| CCOc1cc(C)ccc1C1CCN(CCN2CCC(CNC(=O)c3ccc(-c4ccc(C(F)(F)F)cc4)cc3)CC2)CC1 | 700 nM |
| Cc1cc(N[C@@H](Cc2ccccc2)C(=O)NCCCOC(C)C)nc(NCC2CCCCC2)n1 | 880 nM |
| FC(F)(F)c1ccc2nc(-c3cccc(-c4ccc(CNCc5ccccc5)cc4)c3)[nH]c2c1 | 160 nM |
| CS(=O)(=O)CCNCc1nc(-c2ccc3c(=O)[nH]cnc3c2)cs1 | 1010 nM |

| Compound | IC50 |
| --- | --- |
| Cc1cc(=O)c(C2CCC(c3ccc(Cl)cc3)CC2)c(C)[nH]1 (stereo unspecified) | 740 nM |
| COc1ccc(NC(=O)c2ccc(NC(=O)c3ccc(Cl)cc3)cc2)cc1N1CCN(C)CC1 | 850 nM |
| CC(=O)N[C@H](C(=O)Nc1ccc(-c2ccc(-c3nc4ccc(C(F)(F)F)cc4[nH]3)cc2)cc1)C(C)C | 890 nM |
| C=Cc1ccc(-c2c(C)[nH]c(C)c(Br)c2=O)cc1 | 560 nM |
| OC(CNC1CCCCCCC1)c1ccc(Cl)c(Cl)c1 (stereo unspecified) | 210 nM |
| CN(C)C[C@H](O)[C@@H](c1ccccc1)c1ccc(Cl)cc1 | 50 nM |
| CCCCN(Cc1cc(Cl)c(OCC)c(OC)c1)c1ccc(C(O)(C(F)(F)F)C(F)(F)F)cc1 | 910 nM |
| COc1ccc2nc3cc(Cl)ccc3c(Nc3ccc(O)c(CN4CC5CCC(CC5)C4)c3)c2c1 | 170 nM |
| COc1ccc(CNC2Cc3ccccc3C2)cc1-c1cccc(S(=O)(=O)NCCN2CCCC2)c1 | 760 nM |
| COc1ccc(C2C(C(=O)Nc3cc(OC)c(OC)c(OC)c3)c3cc(OC)c(OC)cc3C(=O)N2C)cc1 (stereo unspecified) | 800 nM |
| CN1CCN(CCNc2c3ccccc3nc3c2ccc2ccccc23)CC1 | 610 nM |
| CCN(CC)CCN(Cc1ccc(-c2ccc(C(F)(F)F)cc2)cc1)C(=O)Cn1c(CCc2cccc(F)c2F)nc(=O)c2cc(F)c(F)cc21 | 830 nM |
| COc1ccc(COc2cc(NCCCN)nc3ccccc23)cc1 | 1280 nM |
| Cc1cc(N[C@@H](CC(C)C)C(=O)Nc2ccccc2)nc(NCCc2ccc(F)cc2)n1 | 1090 nM |
| CC(C)(CNC(=O)C1CCN(CCOc2ccc(F)c(F)c2)CC1)c1nc(-c2ccc(Cl)c(O)c2)c(-c2ccncc2)[nH]1 | 320 nM |
| C=CCOc1ccc(Cc2cnc(N)nc2N)cc1CCC | 1020 nM |
| COc1ccc2nccc([C@@H](O)CN3CCC(NCc4cc5ccc(Cl)cc5[nH]4)CC3)c2c1 | 120 nM |
| CC(C)(C)c1cc(NC(=O)c2ccc(Cl)c([N+](=O)[O-])c2)cc(C(C)(C)C)c1 | 1030 nM |
| O=C(Cc1cnc[nH]1)Nc1ccc(-c2cccc(-c3nc4ccc(F)cc4[nH]3)c2)cc1 | 800 nM |
| O=c1[nH]c2c(cc1CNC1CCCCC1)c(-c1cccc(F)c1)nn2-c1ccccc1 | 950 nM |
| O=C(Nc1ccc(Cn2ncc(N3CCCNCC3)c(Cl)c2=O)cc1)Nc1cccc(Oc2ccccc2)c1 | 990 nM |
| N#Cc1cccc(NC(=O)Nc2cccc(-c3cccc(-c4nc5ccccc5[nH]4)c3)c2)c1 | 90 nM |
| CC(C)CN(C)c1ncnc2c1nc(-c1cncc(C#N)c1)n2CCNCc1ccccc1 | 1360 nM |
| c1cc(-c2ccc(CNCc3ccc(-c4csnn4)cc3)cc2)cc(-c2nc3ccccc3[nH]2)c1 | 160 nM |
